≈ marks a conversion by molar mass, not a printed value. Like-named read-outs stand apart in the source and are kept apart here.
Key:
(CK01) = assay: Antifungal assay (MIC), Candida strain CK01; type: cell-based, Candida tropicalis; settings: 48 h
[1] = test system: peripheral blood mononuclear cells (PBMC); assay: Cytotoxicity assay (AlamarBlue), PBMC; type: cell-based, human; settings: PBMC primary cells
Protocol: (§1) Human erythrocytes (RBC), human monocytes (THP-1), and peripheral blood mononuclear cells (PBMC) were used for this study. THP-1 cells (TIB-202) were obtained from ATCC (https://www.atcc.org (accessed on 26 January 2025)) and activated with PMA (phorbol myristate acetate) (100 ng/mL) for 48 h. Cells were grown in RPMI 1640 medium supplemented with fetal bovine serum (FBS) 10% (10270-098, GIBCO®) and penicillin/streptomycin (1%) (15140-122 GIBCO®) at 37 °C under 5% CO2 atmosphere.
(§2) For the cytotoxicity assay, THP-1 and PBMC medium cultures were added into 96-well plates with 5 × 10^3 cells per well. A two-fold dilution concentration series of each compound was added to the plates to final concentrations of 200 − 6.25 μM. AlamarBlue (DAL1025, ThermoFisher, Waltham, MA, USA), a ready-to-use resazurin-based solution, was used to measure cell viability after treatment with the extracts. A total of 10 µL was added to each well and the plate was incubated for 6–8 h at 37 °C. Fluorescence was then measured with the Biotek Synergy 2 Plate Reader using excitation at 530 nm and emission at 590 nm. The percentage of cell death was then calculated using the following formula (Equation (3)):(3) % Cellular Death = 100 × ODt − OD100/OD0 − OD100 where ODt = the fluorescence value of the test compound, OD100 = the fluorescence value for the culture medium, and OD0 = the fluorescence value for Triton 0.12%.

Candida albicans (CA01) = assay: Antifungal assay (MIC), Candida albicans CA01; type: cell-based; settings: 48 h
Protocol: (§3) Stock solutions of all compounds were prepared in DMSO. Two bacterial (E. coli UTI89 and S. aureus S25) and two yeast strains (C. krusei CK1 and C. albicans CA01) have been used for this study. […] Each culture was diluted 12 times to have a final OD value of 0.1. Then, 100 µL from the diluted (OD of 0.1) bacterial culture and 0.5 μL of each stock solution was added to the corresponding wells (in triplicate) in a 96-well plate to a final concentration of 50 μM. For the antifungal assay, the two strains C. krusei CK1 and C. albicans CA01 were spread on Petri plates with YPD (yeast-extract peptone dextrose) agar. Later, an isolated colony was collected in a tube containing 5mL of RGM (RPMI 1640® (21875, Invitrogen GIBCO®) + 34.56g/L MOPS) to have an OD of 0.05. The fungal culture and stock solutions of compounds were diluted and added to the wells as indicated for the antibacterial activity assay. To determine the potential inhibitory effect of extracts on fungal growth, absorbance at t = 0 h, t = 20 h (for antibacterial assay), and t = 48 h (for antifungal assay) were measured with the Biotek Synergy 2 Plate Reader at a wavelength of 600 nm and analyzed with the software Gen5 v3.08. Then, the differential OD was calculated (ODT48/20-ODT0) and compared to solvent control. […] Ampicillin was used as positive control (MIC of 0.5 µg/mL for all bacteria and 1.0 µg/mL for all fungi).

[2] = test system: Staphylococcus aureus (S25); assay: Antibacterial assay (MIC/MBC), Staphylococcus aureus S25; type: cell-based; settings: for MIC: 20 h
Protocol: as §3

Escherichia coli (UTI89) = assay: Antibacterial assay (MIC), Escherichia coli UTI89; type: cell-based; settings: 20 h
Protocol: as §3

human monocytes (THP-1) = assay: Cytotoxicity assay (AlamarBlue), THP-1; type: cell-based; settings: PMA-activated
Protocol: as §1, §2

[3] = test system: Leishmania infantum (LI01); assay: Antiparasitic activity (MIC), Leishmania infantum LI01; type: cell-based
human erythrocytes (RBC) = assay: Hemolytic assay, human erythrocytes; type: cell-based; settings: for IC50: Homo sapiens, Erythrocyte, 0.5 h; for cytotoxicity against human erythrocytes (RBC): result in words
Protocol: as §1
For the hemolytic assay, freshly obtained human erythrocytes (RBCs) from patients were washed twice with PBS (pH 7.4). This assay was performed at 10% hematocrit with two-fold serial dilutions from 200 μM of test compounds in a final volume of 100 μL, followed by incubation at 37 °C under 5% CO2 atmosphere for 30 min. Later, the plates were centrifugated at 3000g for 5 min and supernatant was transferred onto a new 96-well plate. Finally, RBC lysis was determined by the absorbance of the supernatant at 540 nm. Results were calculated with the following formula (Equation (2)):(2) % hemolysis = 100 × ODt − OD100/OD0 − OD100 where ODt = the absorbance value of test compounds; OD100 = the absorbance value of the medium; and OD0 = the absorbance value of the wells treated with 1% Triton-X.

Staphylococcus aureus = settings: result in words; cited from earlier work
[4] = test system: Niemann-Pick C1-like 1 (NPC1L1) protein; set-up: method as in PMID 30665368; settings: reducing the cholesterol absorption; cited from earlier work
[5] = test system: all fungi (C. krusei CK1 and C. albicans CA01); assay: Antifungal assay, positive control, all fungi; type: cell-based; settings: Pichia kudriavzevii
Protocol: as §3

[6] = test system: all bacteria (E. coli UTI89 and S. aureus S25); assay: Antibacterial assay, positive control, all bacteria; type: cell-based; settings: Escherichia coli
Protocol: as §3

[7] = Staphylococcus aureus (S25), OD 600 nm, inhibiting bacterial growth, read-out: MIC
[8] = Homo sapiens, THP-1, THP-1 cell line
[9] = Homo sapiens, THP-1 cell line, read-out: IC50
[10] = RBC primary cells, hemolysis, 30 min, 10% hematocrit, read-out: IC50

Compound	MIC ((CK01); Candida tropicalis) [µM]	IC50 ([1]; Homo sapiens, PBMC) [µM]	IC50 [1] [µM]	MIC (Candida albicans (CA01); Candida albicans) [µM]	MBC ([2]; Staphylococcus aureus) [µM]	MIC [2, 7] [µM]	MIC ([2]; Staphylococcus aureus) [µM]	MIC (Escherichia coli (UTI89); Escherichia coli) [µM]	IC50 (human monocytes (THP-1); [8]) [µM]	IC50 (human monocytes (THP-1); THP-1 cell line) [µM]	MIC ([3]; Leishmania infantum) [µM]	IC50 (human erythrocytes (RBC)) [µM]	cytotoxicity against human erythrocytes (RBC) (human erythrocytes (RBC))	IC50 ([1]; Homo sapiens, read-out: IC50) [µM]	IC50 (human monocytes (THP-1); [9]) [µM]	IC50 (human erythrocytes (RBC); [10]) [µM]	further results
C[C@@H]1Oc2cc3c(-c4c(O)cc(O)c5c(O)c6c(cc45)O[C@H](C)[C@@H](C)C6=O)c(O)cc(O)c3c(O)c2C(=O)[C@@H]1C [compound 8, chaetochromin B]	> 100	40	33.6 to 40	100	12.5	6.25	6.25	> 100	37.3	33.6 to 40	> 100	> 200	no cytotoxicity				
C[C@H]1Oc2cc3c(-c4c(O)cc(O)c5c(O)c6c(cc45)O[C@H](C)[C@@H](C)C6=O)c(O)cc(O)c3c(O)c2C(=O)[C@@H]1C [compound 7, chaetochromin A]	> 100	35.4	33.6 to 40	> 100	12.5	6.25	6.25	> 100	33.6	33.6 to 40	> 100	> 200	no cytotoxicity				antibacterial activity against S. aureus (Staphylococcus aureus): strong antibacterial activity
CC1=CC2(O)C(C3(C)CC(C)CC(C)C(=O)O3)CC(=O)C23C(=O)N(C)C(=O)C(c2ccccc2)C3C1C (stereo not drawn) [compound 2, chamiside A]																	antibacterial activity against Staphylococcus aureus (Staphylococcus aureus): moderate antibacterial activity
C[C@@H]1[C@H](O)[C@@H](C)/C=C/C=C/C=C/C=C/C=C/C=C/C=C/[C@H](O[C@@H]2O[C@H](C)[C@@H](O)[C@H](N)[C@@H]2O)C[C@@H]2O[C@](O)(C[C@@H](O)C[C@@H](O)[C@H](O)CC[C@@H](O)C[C@@H](O)CC(=O)O[C@H]1C)C[C@H](O)[C@H]2C(=O)O [Amphotericin B, reference compound]														6.25	3.13	25	MIC ((CK01); Candida tropicalis (CK01), OD 600 nm, read-out: MIC): 0.2 µM (≈ 0.185 µg/mL); MIC (Candida albicans (CA01); Candida albicans (CA01), OD 600 nm, read-out: MIC): 0.2 µM; MIC ([3]; Leishmania infantum (LI01), read-out: MIC): 0.39 µM (≈ 0.36 µg/mL)
Chamiside F																	inhibitory activity against NPC1L1 [4]: inhibitory activity
CC1(C)S[C@@H]2[C@H](NC(=O)[C@H](N)c3ccccc3)C(=O)N2[C@H]1C(=O)O [Ampicillin, reference compound]						1.56								> 200	> 200	> 200	MIC [5]: 1 µg/mL; MIC (Escherichia coli (UTI89); Escherichia coli (UTI89), OD 600 nm, read-out: MIC): > 100 µM; MIC [6]: 0.5 µg/mL

— PMC12348691, “Amesilide, a New Bicyclic Polyketide from the Marine Fungus Amesia nigricolor MUT6601” (Molecules, 2025)
